Measurements reported in ChEMBL document CHEMBL4130567, “Discovery of Thiophene[3,2-d]pyrimidine Derivatives as Potent HIV-1 NNRTIs Targeting the Tolerant Region I of NNIBP” (ACS Med Chem Lett, 2017).

Assays:
[1] = tested on: Human immunodeficiency virus 1; experiment: Antiviral activity against HIV1 3B harboring reverse transcriptase Y188L mutant infected in human MT4 cells assessed as inhibition of virus-induced cytopathic effect after 5 days by MTT assay; format: functional, organism-based; details: Human immunodeficiency virus 1, 3B, MT4, 120 h
[2] = tested on: Human immunodeficiency virus 1; experiment: Antiviral activity against HIV1 3B harboring reverse transcriptase RES056 double mutant infected in human MT4 cells assessed as inhibition of virus-induced cytopathic effect after 5 days by MTT assay; format: functional, organism-based; details: Human immunodeficiency virus 1, 3B, MT4, 120 h
[3] = tested on: Human immunodeficiency virus 2; experiment: Antiviral activity against HIV2 ROD infected in human MT4 cells assessed as inhibition of virus-induced cytopathic effect after 5 days by MTT assay; format: functional, organism-based; details: Human immunodeficiency virus 2, ISOLATE ROD, MT4, 120 h
[4] = Selectivity index, ratio of CC50 for human MT4 cells to EC50 for wild type HIV1 3B infected in human MT4 cells; format: toxicity, cell-based; details: MT4 cells infected with wild type HIV1 3B, read-out: Ratio CC50/EC50
[5] = tested on: Human immunodeficiency virus 1; experiment: Antiviral activity against HIV1 3B harboring reverse transcriptase E138K mutant infected in human MT4 cells assessed as inhibition of virus-induced cytopathic effect after 5 days by MTT assay; format: functional, organism-based; details: Human immunodeficiency virus 1, 3B, MT4, 120 h
[6] = tested on: Human immunodeficiency virus 1; experiment: Antiviral activity against wild type HIV1 3B infected in human MT4 cells assessed as inhibition of virus-induced cytopathic effect after 5 days by MTT assay; format: functional, organism-based; details: Human immunodeficiency virus 1, 3B, MT4, 120 h
[7] = tested on: Human immunodeficiency virus 1; experiment: Antiviral activity against HIV1 3B harboring reverse transcriptase Y181C mutant infected in human MT4 cells assessed as inhibition of virus-induced cytopathic effect after 5 days by MTT assay; format: functional, organism-based; details: Human immunodeficiency virus 1, 3B, MT4, 120 h
[8] = tested on: Human immunodeficiency virus 1; experiment: Antiviral activity against HIV1 3B harboring reverse transcriptase F227L/V106A double mutant infected in human MT4 cells assessed as inhibition of virus-induced cytopathic effect after 5 days by MTT assay; format: functional, organism-based; details: Human immunodeficiency virus 1, 3B, MT4, 120 h
[9] = tested on: Human immunodeficiency virus 1; experiment: Antiviral activity against HIV1 3B harboring reverse transcriptase L100I mutant infected in human MT4 cells assessed as inhibition of virus-induced cytopathic effect after 5 days by MTT assay; format: functional, organism-based; details: Human immunodeficiency virus 1, 3B, MT4, 120 h
[10] = Cytotoxicity against human MT4 cells assessed as reduction in cell viability after 5 days by MTT assay; format: cell-based
[11] = tested on: Human immunodeficiency virus 1; experiment: Antiviral activity against HIV1 3B harboring reverse transcriptase K103N mutant infected in human MT4 cells assessed as inhibition of virus-induced cytopathic effect after 5 days by MTT assay; format: functional, organism-based; details: Human immunodeficiency virus 1, 3B, MT4, 120 h
[12] = biological target: Human immunodeficiency virus type 1 reverse transcriptase (Human immunodeficiency virus 1, UniProt Q72547); experiment: Inhibition of recombinant wild type HIV1 reverse transcriptase using DIG-labeled dUTP/biotin-labeled dUTP and dTTP as template and viral nucleotides assessed as decrease in biotin-dUTP incorporation after 1 hr by ELISA

Compound | EC50 [1] [nM] | EC50 [2] [nM] | EC50 [3] [nM] | selectivity ratio [4] | EC50 [5] [nM] | EC50 [6] [nM] | EC50 [7] [nM] | EC50 [8] [nM] | EC50 [9] [nM] | CC50 at 120 h [10] [nM] | EC50 [11] [nM] | IC50 [12] [nM]
CC(=O)Nc1ccc(S(=O)(=O)NC2CCC(Nc3nc(Oc4c(C)cc(C#N)cc4C)c4sccc4n3)CC2)cc1 (stereo not given) | 903 | > 3730 | > 3730 | 340 | 35 | 10 | 513 | 1210 | 562 | 3730 | 32 | 1040
Cc1cc(C#N)cc(C)c1Oc1nc(NC2CCC(NC(=O)c3ccc(C#N)cc3)CC2)nc2ccsc12 (stereo not given) | > 2620 | > 2620 | > 2620 | 19 | 736 | 138 | > 2620 | > 2620 | > 2620 | 2620 | ≥ 1440 | 
Cc1cc(C#N)cc(C)c1Oc1nc(NC2CCC(NS(=O)(=O)c3ccc(Br)cc3)CC2)nc2ccsc12 (stereo not given) | 2250 | 5870 | > 5860 | 231 | 126 | 25 | 852 | ≥ 6140 | 841 | 5860 | 131 | 
Cc1cc(C#N)cc(C)c1Oc1nc(NC2CCC(NC(=O)c3ccc(Br)cc3)CC2)nc2ccsc12 (stereo not given) | > 2850 | > 2850 | > 2850 | 93 | 370 | 30 | > 2850 | > 2850 | > 2850 | 2850 | 519 | 
Cc1cc(C#N)cc(C)c1Oc1nc(NC2CCC(NS(=O)(=O)c3cccc(C(F)(F)F)c3)CC2)nc2ccsc12 (stereo not given) | > 6690 | > 6690 | > 6680 | 78 | 642 | 86 | ≥ 4340 | > 6690 | ≥ 4090 | 6680 | 569 | 
Cc1cc(C#N)cc(C)c1Oc1nc(NC2CCC(NS(=O)(=O)c3ccc(F)cc3)CC2)nc2ccsc12 (stereo not given) | > 3520 | > 3520 | > 3530 | 383 | 76 | 9.2 | 472 | > 3520 | 410 | 3530 | 103 | 
Cc1cc(C#N)cc(C)c1Oc1nc(NC2CCC(NC(=O)c3ccccc3)CC2)nc2ccsc12 (stereo not given) | > 3920 | > 3920 | > 3930 | 294 | 183 | 13 | ≥ 1510 | > 3920 | > 3920 | 3930 | 273 | 
Cc1cc(C#N)cc(C)c1Oc1nc(NC2CCC(NC(=O)c3cccc(C(F)(F)F)c3)CC2)nc2ccsc12 (stereo not given) | > 3240 | > 3240 | > 3240 | 17 | ≥ 1330 | 196 | > 3240 | > 3240 | > 3240 | 3240 | > 3240 | 
Cc1cc(C#N)cc(C)c1Oc1nc(NC2CCC(NS(=O)(=O)c3ccc(C#N)cc3)CC2)nc2ccsc12 (stereo not given) | 675 | > 9280 | > 9290 | 1310 | 45 | 7.1 | 428 | 3580 | 424 | 9290 | 70 | 1140
Cc1cc(C#N)cc(C)c1Oc1nc(NC2CCC(NC(=O)c3ccc(F)cc3)CC2)nc2ccsc12 (stereo not given) | > 3180 | > 3180 | > 3180 | 121 | 230 | 26 | > 3180 | > 3180 | > 3180 | 3180 | 478 | 
Cc1cc(C#N)cc(C)c1Oc1nc(Nc2ccc(C#N)cc2)nc(N)c1Br [ETRAVIRINE] | 20 | 26 |  |  |  | 2.8 | 19 | 23 | 9.7 | 2180 | 3.4 | 
Cc1cn([C@H]2C[C@H](N=[N+]=[N-])[C@@H](CO)O2)c(=O)[nH]c1=O [ZIDOVUDINE] | 8 | 11 | 8 | > 664 | 17 |  | 6.3 | 5.3 | 5.4 | > 7480 | 7.8 | 
